{"source": "patent US20220017877A1", "about": "“BILIRUBIN OXIDASE ACTIVITY IMPROVING METHOD, AND BILIRUBIN OXIDASE PRODUCT” (OZEKI CORPORATION, priority 2018, published 2022)", "target": "T1, recombinant BOD (bilirubin oxidase) derived from Myrothecium verrucaria MT-1 (Albifimbria verrucaria, UniProt Q12737)", "T1 construct": "made in house; host or cells: Aspergillus sp", "T1 sequence (Q12737 39-572)": "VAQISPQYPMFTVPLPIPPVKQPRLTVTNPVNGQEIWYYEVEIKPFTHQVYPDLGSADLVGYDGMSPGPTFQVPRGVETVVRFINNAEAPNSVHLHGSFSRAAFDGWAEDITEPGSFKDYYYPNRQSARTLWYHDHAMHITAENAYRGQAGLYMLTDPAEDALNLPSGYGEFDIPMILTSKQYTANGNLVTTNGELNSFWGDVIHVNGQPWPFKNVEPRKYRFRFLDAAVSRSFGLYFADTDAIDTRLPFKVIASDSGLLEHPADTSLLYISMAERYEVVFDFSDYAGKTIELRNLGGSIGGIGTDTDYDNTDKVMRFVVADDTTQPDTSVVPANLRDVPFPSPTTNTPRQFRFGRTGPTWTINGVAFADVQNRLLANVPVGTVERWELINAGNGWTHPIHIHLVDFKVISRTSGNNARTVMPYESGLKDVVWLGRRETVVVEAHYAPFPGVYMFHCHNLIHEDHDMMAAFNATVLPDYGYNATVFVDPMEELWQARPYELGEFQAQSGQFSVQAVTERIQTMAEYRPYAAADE", "experiment": "BOD activity after leaving the BOD solution with an activity improving agent at 5 to 50° C. in a deoxygenated atmosphere (Test Example 2)", "type": "biochemical", "details": "for activity at 20000 µM / increase of BOD activity as compared with that prior to leaving: 20 mM", "description": "In Test Example 1, a BOD gene derived from a Myrothecium verrucaria MT-1 (GenBank accession number: D12579.1) was introduced into an Aspergillus sp., and then a recombinant BOD (hereinafter, also referred to simply as “BOD”) expressed in the Aspergillus sp. was purified by using a well-known technique and then used as the BOD. The BOD gene derived from the Myrothecium verrucaria MT-1 was codon-optimized in accordance with a gene sequence of the Aspergillus sp., and then introduced into the Aspergillus sp. Further, the BOD thus purified was dissolved in a 50 mM glycine-KOH (pH 8.5) buffer so that the concentration of the BOD became 1.0 mg/mL. Then, a resultant solution was used as a BOD enzyme solution.\nThe enzymatic activity of the BOD was measured as follows. To 1780 μL of a 50 mM potassium phosphate buffer (pH 6.5), 200 μL of a 20 mM ABTS substrate solution was added, so that a mixed solution (1980 μL) was prepared. This mixed solution was incubated for 1 min at 37° C. Thereafter, 20 μL of a solution containing the BOD (specifically, a BOD solution for evaluation, which will be described later) was added to the mixed solution, and a resultant mixed solution (2 mL) was incubated at 37° C. While the mixed solution was incubated, the absorbance of the mixed solution at a wavelength of 436 nm was measured immediately after that addition of the BOD solution for evaluation (at 0 seconds) and thereafter every 20 seconds. On the basis of (i) the absorbance of the mixed solution at a wavelength of 436 nm immediately after the addition of the BOD solution for evaluation and (ii) the absorbance of the mixed solution at a wavelength of 436 nm after a lapse of 1 minute from the addition of the BOD solution for evaluation, calculation was carried out for obtaining an increase rate per minute of the absorbance of the mixed solution at a wavelength of 436 nm after the addition of the BOD solution for evaluation. The BOD activity (unit) in the BOD solution for evaluation was calculated from the increase rate. In the present specification, the amount of enzyme for oxidizing 1 μmol of ABTS per minute was defined as one unit.\nThe following describes a specific test method in Test Example 2. A BOD solution containing an activity improving agent was prepared as in Test Example 1. Further, another BOD solution which contained no activity improving agent (to which no activity improving agent was added) was prepared and used as a control. In Test Example 2, L-ascorbic acid or uric acid was used as the activity improving agent. Moreover, the final concentration of L-ascorbic acid in the BOD solution was set to 4 mM, and the final concentration of uric acid in the BOD solution was set to 20 mM. In addition, in Test Example 2, the concentration of the BOD in the BOD enzyme solution was set to 3.0 mg/mL.\nEach of the above BOD solutions and a deoxygenating agent (Anaero Pack-Kenki manufactured by Mitsubishi Gas Chemical Company, Inc.) were included in one container (pouch) which was not permeable to oxygen. Then, the container was sealed, so that a BOD container was prepared. The BOD container was left at room temperature (approximately 25° C.) for approximately 2 hours, so that an inner atmosphere of the container became the deoxygenated atmosphere. Thereafter, the BOD container was left in a thermostatic chamber set at 5° C., 10° C., 20° C., 30° C., 40° C., or 50° C. for a certain period of time. Here, (a) the BOD solution without any additive was left for 1 day, 3 days, 7 days, 14 days, or 29 days, (b) the BOD solution containing L-ascorbic acid was left for 1 day, 3 days, 7 days, or 14 days, and (c) the BOD solution containing uric acid was left for 1 day, 3 days, 8 days, 14 days, or 28 days. Three samples (BOD containers) were prepared for each condition. After leaving the BOD containers under the above conditions, the BOD solution was collected from each of the BOD containers and used as a BOD solution for evaluation. […]", "note": "Read-outs that look alike come from different tables or passages of the source."}
{"smiles": "O=c1[nH]c(=O)c2[nH]c(=O)[nH]c2[nH]1", "note": "[Uric acid, uric acid]", "values": [{"measurement": "activity at 20000 µM", "setting": "5° C., Day 0, read-out: Activity (%) Day 0", "value": 100, "unit": "%"}, {"measurement": "activity at 20000 µM", "setting": "5° C., Day 1, read-out: Activity (%) Day 1", "value": 116, "unit": "%"}, {"measurement": "activity at 20000 µM", "setting": "5° C., Day 3, read-out: Activity (%) Day 3", "value": 113, "unit": "%"}, {"measurement": "activity at 20000 µM", "setting": "5° C., Day 8, read-out: Activity (%) Day 8", "value": 140, "unit": "%"}, {"measurement": "activity at 20000 µM", "setting": "5° C., Day 14, read-out: Activity (%) Day 14", "value": 137, "unit": "%"}, {"measurement": "activity at 20000 µM", "setting": "5° C., Day 28, read-out: Activity (%) Day 28", "value": 144, "unit": "%"}, {"measurement": "activity at 20000 µM", "setting": "10° C., Day 0, read-out: Activity (%) Day 0", "value": 100, "unit": "%"}, {"measurement": "activity at 20000 µM", "setting": "10° C., Day 1, read-out: Activity (%) Day 1", "value": 123, "unit": "%"}, {"measurement": "activity at 20000 µM", "setting": "10° C., Day 3, read-out: Activity (%) Day 3", "value": 123, "unit": "%"}, {"measurement": "activity at 20000 µM", "setting": "10° C., Day 8, read-out: Activity (%) Day 8", "value": 159, "unit": "%"}, {"measurement": "activity at 20000 µM", "setting": "10° C., Day 14, read-out: Activity (%) Day 14", "value": 144, "unit": "%"}, {"measurement": "activity at 20000 µM", "setting": "10° C., Day 28, read-out: Activity (%) Day 28", "value": 169, "unit": "%"}, {"measurement": "activity at 20000 µM", "setting": "20° C., Day 0, read-out: Activity (%) Day 0", "value": 100, "unit": "%"}, {"measurement": "activity at 20000 µM", "setting": "20° C., Day 1, read-out: Activity (%) Day 1", "value": 134, "unit": "%"}, {"measurement": "activity at 20000 µM", "setting": "20° C., Day 3, read-out: Activity (%) Day 3", "value": 137, "unit": "%"}, {"measurement": "activity at 20000 µM", "setting": "20° C., Day 8, read-out: Activity (%) Day 8", "value": 179, "unit": "%"}, {"measurement": "activity at 20000 µM", "setting": "20° C., Day 14, read-out: Activity (%) Day 14", "value": 173, "unit": "%"}, {"measurement": "activity at 20000 µM", "setting": "20° C., Day 28, read-out: Activity (%) Day 28", "value": 206, "unit": "%"}, {"measurement": "activity at 20000 µM", "setting": "30° C., Day 0, read-out: Activity (%) Day 0", "value": 100, "unit": "%"}, {"measurement": "activity at 20000 µM", "setting": "30° C., Day 1, read-out: Activity (%) Day 1", "value": 144, "unit": "%"}, {"measurement": "activity at 20000 µM", "setting": "30° C., Day 3, read-out: Activity (%) Day 3", "value": 181, "unit": "%"}, {"measurement": "activity at 20000 µM", "setting": "30° C., Day 8, read-out: Activity (%) Day 8", "value": 202, "unit": "%"}, {"measurement": "activity at 20000 µM", "setting": "30° C., Day 14, read-out: Activity (%) Day 14", "value": 212, "unit": "%"}, {"measurement": "activity at 20000 µM", "setting": "30° C., Day 28, read-out: Activity (%) Day 28", "value": 215, "unit": "%"}, {"measurement": "activity at 20000 µM", "setting": "40° C., Day 0, read-out: Activity (%) Day 0", "value": 100, "unit": "%"}, {"measurement": "activity at 20000 µM", "setting": "40° C., Day 1, read-out: Activity (%) Day 1", "value": 176, "unit": "%"}, {"measurement": "activity at 20000 µM", "setting": "40° C., Day 3, read-out: Activity (%) Day 3", "value": 206, "unit": "%"}, {"measurement": "activity at 20000 µM", "setting": "40° C., Day 8, read-out: Activity (%) Day 8", "value": 216, "unit": "%"}, {"measurement": "activity at 20000 µM", "setting": "40° C., Day 14, read-out: Activity (%) Day 14", "value": 194, "unit": "%"}, {"measurement": "activity at 20000 µM", "setting": "40° C., Day 28, read-out: Activity (%) Day 28", "value": 217, "unit": "%"}, {"measurement": "activity at 20000 µM", "setting": "50° C., Day 0, read-out: Activity (%) Day 0", "value": 100, "unit": "%"}, {"measurement": "activity at 20000 µM", "setting": "50° C., Day 1, read-out: Activity (%) Day 1", "value": 210, "unit": "%"}, {"measurement": "activity at 20000 µM", "setting": "50° C., Day 3, read-out: Activity (%) Day 3", "value": 196, "unit": "%"}, {"measurement": "activity at 20000 µM", "setting": "50° C., Day 8, read-out: Activity (%) Day 8", "value": 175, "unit": "%"}, {"measurement": "activity at 20000 µM", "setting": "50° C., Day 14, read-out: Activity (%) Day 14", "value": 195, "unit": "%"}, {"measurement": "activity at 20000 µM", "setting": "50° C., Day 28, read-out: Activity (%) Day 28", "value": 174, "unit": "%"}, {"measurement": "increase of BOD activity as compared with that prior to leaving", "setting": "eight days at 20° C.", "value": "approximately 1.8 times"}, {"measurement": "increase of BOD activity as compared with that prior to leaving", "setting": "three days at 30° C.", "value": "approximately 1.8 times"}, {"measurement": "BOD activity increase at 5° C. compared with not lower than 10° C.", "setting": "BOD containers left at 5° C.", "value": "not found to be increased to an extend that was achieved"}]}
